Converted amounts (≈) assume the structure as drawn. Blank lines part the entries; values can stand above or below the compound they belong to.
Key:
Test in all cases: In vitro antibacterial evaluation: minimum inhibitory concentration (MIC), broth dilution method
Assay type in all cases: cell-based
Staphylococcus sp. = conditions: broth dilution, 18 hours at 35° C.
Method: (§1) The minimum inhibitory concentration (MIC), the lowest concentration of the antibiotic which inhibits growth of the test organism, is determined by the broth dilution method using Muller-Hinton II […] (Baltimore Biological Laboratories) following the recommendations of the National Committee for Clinical Laboratory Standards [Methods for dilution antimicrobial susceptibility tests for bacteria that grow aerobically, approved standard M7-A2, National Committee for Clinical Laboratory Standards, Villanova, Pa].
(§2) An inoculum level of 5×10^5 CFU/mL, and a range of antibiotic concentrations (64-0.06 μg/mL) is used. […] The test organisms include a spectrum of Gram-positive bacteria comprised of Staphylococcus sp., Streptococcus sp. and Enterococcus sp. These organisms include recent clinical isolates that are resistant to methicillin, penicillin and/or vancomycin.

Streptococcus sp. = conditions: for MIC Streptococcus pyogenes (GC 4563): strain GC 4563; for MIC Streptococcus agalactiae (GC 4564): strain GC 4564
Method: as §1, §2

Enterococcus sp. = conditions: for MIC Enterococcus faecalis (ATCC 29212): strain ATCC 29212; for MIC Enterococcus faecalis (GC 2242): strain GC 2242; for MIC Enterococcus faecium (GC 2243): strain GC 2243; for MIC Enterococcus faecalis (GC 2691): strain GC 2691; for MIC Enterococcus faecalis (GC 3059): strain GC 3059; for MIC Enterococcus faecalis (GC 4552): strain GC 4552; for MIC Enterococcus faecalis (GC 4553): strain GC 4553; for MIC Enterococcus faecalis (GC 4554): strain GC 4554; for MIC Enterococcus faecium (GC 4556): strain GC 4556; for MIC Enterococcus faecium (GC 4557): strain GC 4557; for MIC Enterococcus avium (GC 4558): strain GC 4558; for MIC Enterococcus faecalis (GC 6189): strain GC 6189
Method: as §1, §2

Escherichia coli = conditions: for MIC Escherichia coli (GC 4559): strain GC 4559; for MIC Escherichi coli (GC 4560): strain GC 4560
Method: as §1, §2

MIC Coagulase Negative Staphylococcus (GC 4547) (Staphylococcus sp.; 5×10^5 CFU/mL): 1 to 2 µg/mL
MIC Coagulase Negative Staphylococcus (GC 4548) (Staphylococcus sp.; 5×10^5 CFU/mL): <0.5 to 1 µg/mL
MIC Coagulase Negative Staphylococcus (GC 4549) (Staphylococcus sp.; 5×10^5 CFU/mL): <0.5 to 1 µg/mL
MIC Coagulase Negative Staphylococcus (GC 4551) (Staphylococcus sp.; 5×10^5 CFU/mL): 1 µg/mL (≈ 0.695 µM)
MIC Coagulase Negative Staphylococcus (GC 6257) (Staphylococcus sp.; 5×10^5 CFU/mL): 2 µg/mL (≈ 1.39 µM)
MIC Coagulase Negative Staphylococcus (ID-3941) (Staphylococcus sp.; 5×10^5 CFU/mL): 1 µg/mL (≈ 0.695 µM)
MIC Staphylococcus aureus (GC 3051) (Staphylococcus sp.; 5×10^5 CFU/mL): 0.5 µg/mL (≈ 0.347 µM)
MIC Staphylococcus aureus (GC 3053) (Staphylococcus sp.; 5×10^5 CFU/mL): 0.5 µg/mL (≈ 0.347 µM)
MIC Staphylococcus aureus (GC 4542) (Staphylococcus sp.; 5×10^5 CFU/mL): 0.5 to 1 µg/mL
MIC Staphylococcus aureus (GC 4544) (Staphylococcus sp.; 5×10^5 CFU/mL): 0.5 to 1 µg/mL
MIC Staphylococcus aureus (GC 4545) (Staphylococcus sp.; 5×10^5 CFU/mL): 0.5 to 1 µg/mL
MIC Staphylococcus aureus-SMITH (GC 4543) (Staphylococcus sp.; 5×10^5 CFU/mL): 0.5 to 1 µg/mL
MIC Staphylococcus aureus (GC 3051) (Staphylococcus sp.; strain GC 3051): 0.5 µg/mL (≈ 0.347 µM)
MIC Staphylococcus aureus (GC 3053) (Staphylococcus sp.; strain GC 3053): 0.5 µg/mL (≈ 0.347 µM)
MIC Staphylococcus aureus (GC 4542) (Staphylococcus sp.; strain GC 4542): 0.5 to 1 µg/mL
MIC Staphylococcus aureus-SMITH (GC 4543) (Staphylococcus sp.; strain GC 4543): 0.5 to 1 µg/mL
MIC Staphylococcus aureus (GC 4544) (Staphylococcus sp.; strain GC 4544): 0.5 to 1 µg/mL
MIC Staphylococcus aureus (GC 4545) (Staphylococcus sp.; strain GC 4545): 0.5 to 1 µg/mL
MIC Coagulase Negative Staphylococcus (GC 4547) (Staphylococcus sp.; strain GC 4547): 1 to 2 µg/mL
MIC Coagulase Negative Staphylococcus (GC 4548) (Staphylococcus sp.; strain GC 4548): <0.5 to 1 µg/mL
MIC Coagulase Negative Staphylococcus (GC 4549) (Staphylococcus sp.; strain GC 4549): <0.5 to 1 µg/mL
MIC Coagulase Negative Staphylococcus (GC 4551) (Staphylococcus sp.; strain GC 4551): 1 µg/mL (≈ 0.695 µM)
MIC Coagulase Negative Staphylococcus (GC 6257) (Staphylococcus sp.; strain GC 6257): 2 µg/mL (≈ 1.39 µM)
MIC Coagulase Negative Staphylococcus (ID-3941) (Staphylococcus sp.; strain ID-3941): 1 µg/mL (≈ 0.695 µM)
MIC Streptococcus pyogenes (GC 4563) (Streptococcus sp.): >0.12 µg/mL
MIC Streptococcus agalactiae (GC 4564) (Streptococcus sp.): <0.12 µg/mL
MIC Streptococcus pyogenes (ID-3187) (Streptococcus sp.; strain ID-3187): <0.5 µg/mL
MIC Enterococcus faecalis (ATCC 29212) (Enterococcus sp.): 0.5 to 2 µg/mL
MIC Enterococcus faecalis (GC 2242) (Enterococcus sp.): 0.5 to 1 µg/mL
MIC Enterococcus faecium (GC 2243) (Enterococcus sp.): 1 to 2 µg/mL
MIC Enterococcus faecalis (GC 2691) (Enterococcus sp.): 0.5 µg/mL (≈ 0.347 µM)
MIC Enterococcus faecalis (GC 3059) (Enterococcus sp.): 0.5 µg/mL (≈ 0.347 µM)
MIC Enterococcus faecalis (GC 4552) (Enterococcus sp.): 0.5 to 1 µg/mL
MIC Enterococcus faecalis (GC 4553) (Enterococcus sp.): 0.5 to 1 µg/mL
MIC Enterococcus faecalis (GC 4554) (Enterococcus sp.): 0.5 to 1 µg/mL
MIC Enterococcus faecium (GC 4556) (Enterococcus sp.): 2 µg/mL (≈ 1.39 µM)
MIC Enterococcus faecium (GC 4557) (Enterococcus sp.): 1 to 2 µg/mL
MIC Enterococcus avium (GC 4558) (Enterococcus sp.): 0.5 to 2 µg/mL
MIC Enterococcus faecalis (GC 6189) (Enterococcus sp.): 0.5 µg/mL (≈ 0.347 µM)
MIC Escherichia coli (GC 4559) (Escherichia coli): 64 µg/mL (≈ 44.5 µM)
MIC Escherichi coli (GC 4560) (Escherichia coli): 0.5 to 2 µg/mL
SMILES: CC(c1ccccc1)C1NC(=O)CNC(=O)C(CO)NC(=O)C(C(O)C2CNC(=N)N2C2OC(CO)C(O)C(O)C2O)NC(=O)C(C(O)C2CNC(=N)N2)NC(=O)C(Cc2ccc(OC3OC(CO)C(OC4OC5COC(c6ccc(C(C)(C)C)cc6)OC5C(O)C4O)C(O)C3O)cc2)NC1=O (stereo not drawn) [Example 147, Cyclo[glycyl-β-methylphenylalanyl-O-[4-O-[4,6-O-(4-tert-butylbenzylidene)hexonyranosyl]-hexopyranosyl]tyrosyl-3-(2-iminoimidazolidin-4-yl)seryl-3-(3-hexopyranosyl-2-iminoimidazolidin-4-yl)serylseryl]]
MIC Staphylococcus haemolyticus (GC 4546) (Staphylococcus sp.; 5×10^5 CFU/mL): 1 to 2 µg/mL
MIC Staphylococcus haemolyticus (GC 4546) (Staphylococcus sp.; strain GC 4546): 1 to 2 µg/mL

MIC Coagulase Negative Staphylococcus (GC 4547) (Staphylococcus sp.; 5×10^5 CFU/mL): 1 µg/mL (≈ 0.694 µM)
MIC Coagulase Negative Staphylococcus (GC 4548) (Staphylococcus sp.; 5×10^5 CFU/mL): 1 µg/mL (≈ 0.694 µM)
MIC Coagulase Negative Staphylococcus (GC 4549) (Staphylococcus sp.; 5×10^5 CFU/mL): 1 µg/mL (≈ 0.694 µM)
MIC Coagulase Negative Staphylococcus (GC 4551) (Staphylococcus sp.; 5×10^5 CFU/mL): 1 µg/mL (≈ 0.694 µM)
MIC Coagulase Negative Staphylococcus (GC 6257) (Staphylococcus sp.; 5×10^5 CFU/mL): 1 µg/mL (≈ 0.694 µM)
MIC Staphylococcus aureus (ATCC 29213) (Staphylococcus sp.; 5×10^5 CFU/mL): 2 µg/mL (≈ 1.39 µM)
MIC Staphylococcus aureus (GC 1131) (Staphylococcus sp.; 5×10^5 CFU/mL): 2 µg/mL (≈ 1.39 µM)
MIC Staphylococcus aureus (GC 3051) (Staphylococcus sp.; 5×10^5 CFU/mL): 2 µg/mL (≈ 1.39 µM)
MIC Staphylococcus aureus (GC 3053) (Staphylococcus sp.; 5×10^5 CFU/mL): 4 µg/mL (≈ 2.78 µM)
MIC Staphylococcus aureus (GC 4541) (Staphylococcus sp.; 5×10^5 CFU/mL): 2 µg/mL (≈ 1.39 µM)
MIC Staphylococcus aureus (GC 4542) (Staphylococcus sp.; 5×10^5 CFU/mL): 2 µg/mL (≈ 1.39 µM)
MIC Staphylococcus aureus (GC 4544) (Staphylococcus sp.; 5×10^5 CFU/mL): 2 µg/mL (≈ 1.39 µM)
MIC Staphylococcus aureus (GC 4545) (Staphylococcus sp.; 5×10^5 CFU/mL): 2 µg/mL (≈ 1.39 µM)
MIC Staphylococcus aureus-SMITH (GC 4543) (Staphylococcus sp.; 5×10^5 CFU/mL): 2 µg/mL (≈ 1.39 µM)
MIC Staphylococcus aureus (ATCC 29213) (Staphylococcus sp.; strain ATCC 29213): 2 µg/mL (≈ 1.39 µM)
MIC Staphylococcus aureus (GC 1131) (Staphylococcus sp.; strain GC 1131): 2 µg/mL (≈ 1.39 µM)
MIC Staphylococcus aureus (GC 3051) (Staphylococcus sp.; strain GC 3051): 2 µg/mL (≈ 1.39 µM)
MIC Staphylococcus aureus (GC 3053) (Staphylococcus sp.; strain GC 3053): 4 µg/mL (≈ 2.78 µM)
MIC Staphylococcus aureus (GC 4541) (Staphylococcus sp.; strain GC 4541): 2 µg/mL (≈ 1.39 µM)
MIC Staphylococcus aureus (GC 4542) (Staphylococcus sp.; strain GC 4542): 2 µg/mL (≈ 1.39 µM)
MIC Staphylococcus aureus-SMITH (GC 4543) (Staphylococcus sp.; strain GC 4543): 2 µg/mL (≈ 1.39 µM)
MIC Staphylococcus aureus (GC 4544) (Staphylococcus sp.; strain GC 4544): 2 µg/mL (≈ 1.39 µM)
MIC Staphylococcus aureus (GC 4545) (Staphylococcus sp.; strain GC 4545): 2 µg/mL (≈ 1.39 µM)
MIC Coagulase Negative Staphylococcus (GC 4547) (Staphylococcus sp.; strain GC 4547): 1 µg/mL (≈ 0.694 µM)
MIC Coagulase Negative Staphylococcus (GC 4548) (Staphylococcus sp.; strain GC 4548): 1 µg/mL (≈ 0.694 µM)
MIC Coagulase Negative Staphylococcus (GC 4549) (Staphylococcus sp.; strain GC 4549): 1 µg/mL (≈ 0.694 µM)
MIC Coagulase Negative Staphylococcus (GC 4551) (Staphylococcus sp.; strain GC 4551): 1 µg/mL (≈ 0.694 µM)
MIC Coagulase Negative Staphylococcus (GC 6257) (Staphylococcus sp.; strain GC 6257): 1 µg/mL (≈ 0.694 µM)
MIC Streptococcus pneumoniae (ATCC 6301) (Streptococcus sp.; strain ATCC 6301): <0.5 µg/mL
MIC Streptococcus pneumoniae (GC 1894) (Streptococcus sp.; strain GC 1894): <0.5 µg/mL
MIC Streptococcus pyogenes (GC 4563) (Streptococcus sp.): <0.5 µg/mL
MIC Streptococcus agalactiae (GC 4564) (Streptococcus sp.): 1 µg/mL (≈ 0.694 µM)
MIC Streptococcus pneumoniae (GC 4565) (Streptococcus sp.; strain GC 4565): 2 µg/mL (≈ 1.39 µM)
MIC Enterococcus faecalis (ATCC 29212) (Enterococcus sp.): 8 µg/mL (≈ 5.55 µM)
MIC Enterococcus faecalis (GC 2242) (Enterococcus sp.): 8 µg/mL (≈ 5.55 µM)
MIC Enterococcus faecium (GC 2243) (Enterococcus sp.): 8 µg/mL (≈ 5.55 µM)
MIC Enterococcus faecalis (GC 2691) (Enterococcus sp.): 8 µg/mL (≈ 5.55 µM)
MIC Enterococcus faecalis (GC 3059) (Enterococcus sp.): 8 µg/mL (≈ 5.55 µM)
MIC Enterococcus faecalis (GC 4552) (Enterococcus sp.): 8 µg/mL (≈ 5.55 µM)
MIC Enterococcus faecalis (GC 4553) (Enterococcus sp.): 8 µg/mL (≈ 5.55 µM)
MIC Enterococcus faecalis (GC 4554) (Enterococcus sp.): 8 µg/mL (≈ 5.55 µM)
MIC Enterococcus faecium (GC 4556) (Enterococcus sp.): 8 µg/mL (≈ 5.55 µM)
MIC Enterococcus faecium (GC 4557) (Enterococcus sp.): 2 µg/mL (≈ 1.39 µM)
MIC Enterococcus avium (GC 4558) (Enterococcus sp.): 8 µg/mL (≈ 5.55 µM)
MIC Enterococcus faecalis (GC 6189) (Enterococcus sp.): 8 µg/mL (≈ 5.55 µM)
MIC Escherichia coli (ATCC 25922) (Escherichia coli; strain ATCC 25922): >64 µg/mL
MIC Escherichia coli (GC 4559) (Escherichia coli): 64 µg/mL (≈ 44.4 µM)
MIC Escherichi coli (GC 4560) (Escherichia coli): <0.5 µg/mL
SMILES: CC(c1ccccc1)C1NC(=O)CNC(=O)C(CO)NC(=O)C(C(O)C2CNC(=N)N2C2OC(CO)C(O)C(O)C2O)NC(=O)C(C(O)C2CNC(=N)N2)NC(=O)C(Cc2ccc(OC3OC(CO)C(OC4OC5COC(c6ccc7c(c6)OCCO7)OC5C(O)C4O)C(O)C3O)cc2)NC1=O (stereo not drawn) [Example 149]
MIC Staphylococcus haemolyticus (GC 4546) (Staphylococcus sp.; 5×10^5 CFU/mL): 1 µg/mL (≈ 0.694 µM)
MIC Staphylococcus haemolyticus (GC 4546) (Staphylococcus sp.; strain GC 4546): 1 µg/mL (≈ 0.694 µM)
